Tests used:
[1] = system: GSY, SIRT1, PPARγ in C2C12 cells; assay: mRNA expression of genes related with energy in C2C12 cells; format: cell-based, mice; settings: C2C12, 0.36 μg/mL (Cr 5 μg/mL), control G1 = 1.00
Protocol: (§1) C2C12 cells were dispensed into a 6-well plate at 2×10^5 cells/well and stabilized for 24 hours. In order to investigate the effect of each test substance on muscle cell differentiation, each test substance was added to the myocyte differentiation medium. The cells were cultured for 4 days (mRNA analysis) or 7 days (protein analysis) after exchanging the cell culture medium with the myocyte differentiation medium treated with each test substance, as shown in Table 2.
(§2) C2C12 cells were dispensed into a 6-well plate at 2×10^5 cells/well and stabilized for 24 hours. The cells were cultured for 2 or 4 days after replacing the cell culture with a myocyte differentiation medium containing the test substance. After collecting the cells, total RNA was isolated using an RNeasy Plus Mini kit (QIAGEN), and quantified using a micro-volume spectrophotometer (BioSpec-nano, Shimadzu). RNAs with an OD260/280 value greater than 1.8 were used for experiment.
(§3) After obtaining cDNA from the total RNA (2 μg) using a HyperScript™ RT master mix kit (GeneAll Biotechnology), real-time PCR was performed using a Rotor-Gene 300 PCR kit (Corbett Research) and a Rotor-Gene™ SYBR Green kit (QIAGEN). Quantitative analysis of the gene expression was performed using the Rotor-Gene 6000 Series System Software program (Corbett Research).
The result of investigating the effect of the compositions according to Examples 1 to 4 on the mRNA expression of GSY, SIRT1 and PPARγ involved in the energy metabolism of muscle cells is shown in Table 11.

[2] = system: PGC1α, AMPK, p38, Nrf2 in gastrocnemius muscle (GA); assay: Western blot of proteins associated with PGC-1α activation in gastrocnemius muscle (GA); format: in vivo, ICR mice
[3] = system: MHC1, MHC7, MHC2A, MHC2B, PGC-1α, PKB, FNDC5 in C2C12 cells; assay: mRNA expression of genes related with muscular strength type in C2C12 cells; format: cell-based, mice; settings: C2C12, 0.36 μg/mL (Cr 5 μg/mL), control G1 = 1.00
Protocol: as §1, §2, §3
The effect of the compositions according to Examples 1 to 4 on the mRNA expression of MHC1, MHC7, MHC2A and MHC2B, which are responsible for muscular strength type, was investigated.
The result of investigating the effect of the compositions according to Examples 1 to 4 on the mRNA expression of PGC-1α, PKB and FNDC5 on the muscular strength type is shown in Table 10.

[4] = system: gastrocnemius muscle (GA); assay: Glycogen content in muscle (gastrocnemius muscle, GA); format: in vivo, ICR mice; settings: 6 weeks
Protocol: (§4) After an acclimatization period of 1 week, healthy animals were selected and divided into 6 groups according to the randomized block design. The animals were divided into (G1) a non-exercise control group, (G2) a non-exercise+7 mg/kg body weight (BW) Example 1 group, (G3) a non-exercise+7 mg/kg BW Example 2 group, (G4) a non-exercise+7 mg/kg BW Example 3 group, (G5) a non-exercise+7 mg/kg BW Example 4 group, (G6) an exercise control group, (G7) an exercise+7 mg/kg BW Example 1 group, (G8) an exercise+7 mg/kg BW Example 2 group, (G9) an exercise+7 mg/kg BW Example 3 group, (G10) an exercise+7 mg/kg BW Example 4 group, and (G11) an exercise+75 mg/kg BW Cr dose group. Each test group consisted of 10 animals.
A muscle tissue fluid was prepared to measure glycogen content and enzymatic activity in the muscle tissue. 1 mL of PBS was added to the extracted quadriceps femoris muscle (QF), gastrocnemius muscle (GA), soleus muscle (SOL) and extensor digitorum longus muscle (EDL), and the skeletal muscles were homogenized with a homogenizer. The homogenized solution was centrifuged at 5,000 rpm for 10 minutes and then used as a muscle tissue fluid. The amount of proteins in the muscle tissue was measured using a BCA protein assay kit (Thermo Scientific).
The glycogen content in the liver and skeletal muscle (GA) was measured using a glycogen assay kit according to the method presented by the manufacturer (Abcam).
Accordingly, the glycogen content in the muscle (GA) collected at the end of the test was measured.

[5] = system: TFam, CPT1-β, mtDNA in C2C12 cells; assay: mRNA expression related with mitochondrial replication in C2C12 cells (real-time RT-PCR); format: cell-based, mice; settings: C2C12, 0.36 μg/mL (Cr 5 μg/mL), control G1 = 1.00
Protocol: as §1, §2, §3
The effect of the treatment of C2C12 cells with the test substances on the mRNA expression of mtDNA, Tfam and CPT-1β associated with mitochondrial replication was investigated.

ICR mice [6] = assay: Blood biochemistry (serum analysis) at end of test; format: in vivo
Text: After an acclimatization period of 1 week, healthy animals were selected and divided into 6 groups according to the randomized block design. […] Each test group consisted of 10 animals.
The contents of glucose, triglycerides (TG), total cholesterol (CHOL), LDL-cholesterol (LDL-CHOL), HDL-cholesterol (HDL-CHOL), blood urea nitrogen (BUN) and creatinine (CREA) in the serum, and the activities of creatine kinase (CK), lactate dehydrogenase (LDH), alanine aminotransferase (ALT), aspartate aminotransferase (AST) and alkaline phosphatase (ALP) were measured using a blood biochemistry analyzer (KoneLab 20 XT, Thermo Fisher Scientific).

ICR mice [7] = assay: Weight of liver and muscles; format: in vivo; settings: 6 weeks
Protocol: as §4
Before sacrificing, the experimental animal was anesthetized using an anesthetic prepared by dilution of tribromoethanol with tertiary amyl alcohol and blood was taken from the eye socket. The blood was placed in a serum-separating tube (Becton Dickinson) and left at room temperature for 30 minutes, centrifuged at 5,000 rpm for 10 minutes to separate the serum, and kept at −70° C. until analysis. After the blood sampling, the experimental animal was sacrificed and the liver and skeletal muscles [quadriceps femoris muscle (QF), gastrocnemius muscle (GA), soleus muscle (SOL), and extensor digitorum longus muscle (EDL)] were extracted. Their weight was measured after rinsing with cold physiological saline and removing excess water with filter paper. A portion of the soleus muscle (SOL) was fixed with 4% paraformaldehyde (PFA) and then embedded in paraffin for histoimmunological staining. Also, total RNA was isolated from a portion of the soleus muscle and subjected to real-time RT-PCR. Proteins were isolated from a portion of the gastrocnemius muscle (GA) and subjected to western blot. The remaining tissue was kept at −70° C. until analysis.
After the end of the test, the weight of the muscles and liver of the experimental animals was measured.
Since the body weight of the experimental animals was decreased due to exercise and the administration of the test substances, the relative weight of the muscles and liver per 100 g of body weight was calculated and shown in Table 23.

[8] = GA muscle, treadmill exercise, 7 mg/kg BW (Cr 75 mg/kg BW), G1 = 1.00
[9] = treadmill exercise, 7 mg/kg BW (Cr 75 mg/kg BW)
[10] = serum, treadmill exercise, 7 mg/kg BW (Cr 75 mg/kg BW), 6 weeks
[11] = GA muscle, non-exercise, 7 mg/kg BW, G1 = 1.00
[12] = serum, non-exercise, 7 mg/kg BW, 6 weeks

CN(CC(=O)O)C(=N)N.O [Cr, Creatine monohydrate, reference compound]
mRNA expression PPARγ [1]: 2.93 ± 1.32
mRNA expression Sirt1 [1]: 1.13 ± 0.18
p-AMPK/AMPK ratio [2, 8]: 1.43 ± 0.13
p-Nrf2/Nrf2 ratio [2, 8]: 1.35 ± 0.17
p-PGC1α/PGC1α ratio [2, 8]: 2.28 ± 0.84^++
p-p38/p38 ratio [2, 8]: 1.94 ± 0.16^+
mRNA expression FNDC5 [3]: 1.83 ± 0.47
mRNA expression MHC1 [3]: 4.50 ± 1.43
mRNA expression MHC2A [3]: 1.74 ± 0.22
mRNA expression MHC2B [3]: 1.10 ± 0.10
mRNA expression MHC7 [3]: 7.87 ± 2.66
mRNA expression PGC-1α [3]: 1.54 ± 1.10
mRNA expression PKB [3]: 2.18 ± 0.51
Glycogen content in 1 mg of GA [4, 9]: 3.32 ± 0.21^+ μg/mg GA
Total glycogen content in GA [4, 9]: 1350.5 ± 73.7^+ μg/GA
mRNA expression CPT1-β [5]: 0.93 ± 0.20
mRNA expression Tfam [5]: 0.48 ± 0.07
BUN (ICR mice [6]; [10]): 7.84 ± 0.47 mg/dL
CK (ICR mice [6]; [10]): 521.5 U/L
CREA (ICR mice [6]; [10]): 0.363 mg/dL
LDH (ICR mice [6]; [10]): 1,169 U/L
Lactate (ICR mice [6]; [10]): 5.30 ± 0.41^++ μmol/L
Relative weight of extensor digitorum longus muscle (EDL) (ICR mice [7]; [9]): 0.059 ± 0.004 g/100 g body weight
Relative weight of gastrocnemius muscle (GA) (ICR mice [7]; [9]): 1.078 ± 0.028^ g/100 g body weight
Relative weight of quadriceps femoris muscle (QF) (ICR mice [7]; [9]): 0.873 g/100 g body weight
Relative weight of soleus muscle (SOL) (ICR mice [7]; [9]): 0.061 g/100 g body weight
Weight of extensor digitorum longus muscle (EDL) (ICR mice [7]; [9]): 0.022 ± 0.001 g
Weight of gastrocnemius muscle (GA) (ICR mice [7]; [9]): 0.409 ± 0.012 g
Weight of quadriceps femoris muscle (QF) (ICR mice [7]; [9]): 0.330 g
Weight of soleus muscle (SOL) (ICR mice [7]; [9]): 0.023 g

CC(C)=CCC[C@](C)(O)C1CC[C@]2(C)C1[C@H](O)CC1[C@@]3(C)C[C@@H](O)C(OC4OC(CO)C(O)C(O)C4OC4OC(CO)C(O)C(O)C4O)C(C)(C)C3CC[C@]12C (some centres unmarked) [Example 1, Gypenoside L]
mRNA expression GSY [1]: 2.71 ± 0.32
mRNA expression PPARγ [1]: 1.16 ± 0.47
mRNA expression Sirt1 [1]: 1.40 ± 0.22
p-AMPK/AMPK ratio ([2]; 7 mg/kg): 1.41 ± 0.14
p-Nrf2/Nrf2 ratio ([2]; 7 mg/kg): 1.30 ± 0.16
p-PGC1α/PGC1α ratio ([2]; 7 mg/kg): 1.98 ± 0.34^+
p-p38/p38 ratio ([2]; 7 mg/kg): 1.86 ± 0.13^+
p-AMPK/AMPK ratio [2, 11]: 1.22 ± 0.09
p-Nrf2/Nrf2 ratio [2, 11]: 1.02 ± 0.06
p-PGC1α/PGC1α ratio [2, 11]: 1.14 ± 0.07
p-p38/p38 ratio [2, 11]: 1.71 ± 0.16
mRNA expression FNDC5 [3]: 2.97 ± 0.39
mRNA expression MHC1 [3]: 10.30 ± 1.75
mRNA expression MHC2A [3]: 1.54 ± 0.32
mRNA expression MHC2B [3]: 1.20 ± 0.12
mRNA expression MHC7 [3]: 1.80 ± 0.41
mRNA expression PGC-1α [3]: 11.75 ± 3.82
mRNA expression PKB [3]: 3.04 ± 0.46
Glycogen content in 1 mg of GA ([4]; non-exercise, 7 mg/kg BW): 3.56 ± 0.15 μg/mg GA
Total glycogen content in GA ([4]; non-exercise, 7 mg/kg BW): 1442.1 ± 76.2 μg/GA
Glycogen content in 1 mg of GA [4, 9]: 3.38 ± 0.12^+ μg/mg GA
Total glycogen content in GA [4, 9]: 1404.4 ± 83.3^+ μg/GA
mRNA expression CPT1-β [5]: 1.83 ± 0.41
mRNA expression Tfam [5]: 0.91 ± 0.10
mRNA expression mtDNA [5]: 1.29 ± 0.41
BUN (ICR mice [6]; 7 mg/kg, 1008 h): 7.10 ± 0.40 mg/dL
CK (ICR mice [6]; 7 mg/kg, 1008 h): 471.7 U/L
LDH (ICR mice [6]; 7 mg/kg, 1008 h): 1,198 U/L
BUN (ICR mice [6]; [12]): 7.54 ± 0.47 mg/dL
CK (ICR mice [6]; [12]): 416.7 U/L
CREA (ICR mice [6]; [12]): 0.312 mg/dL
LDH (ICR mice [6]; [12]): 894 U/L
Lactate (ICR mice [6]; [12]): 5.15 ± 0.30 µmol/L
CREA (ICR mice [6]; [10]): 0.348 mg/dL
Relative weight of extensor digitorum longus muscle (EDL) (ICR mice [7]; non-exercise, 7 mg/kg BW): 0.056 ± 0.002 g/100 g body weight
Relative weight of gastrocnemius muscle (GA) (ICR mice [7]; non-exercise, 7 mg/kg BW): 1.040 ± 0.036^ g/100 g body weight
Relative weight of quadriceps femoris muscle (QF) (ICR mice [7]; non-exercise, 7 mg/kg BW): 0.742 g/100 g body weight
Relative weight of soleus muscle (SOL) (ICR mice [7]; non-exercise, 7 mg/kg BW): 0.056 g/100 g body weight
Weight of extensor digitorum longus muscle (EDL) (ICR mice [7]; non-exercise, 7 mg/kg BW): 0.021 ± 0.001 g
Weight of gastrocnemius muscle (GA) (ICR mice [7]; non-exercise, 7 mg/kg BW): 0.392 ± 0.010 g
Weight of quadriceps femoris muscle (QF) (ICR mice [7]; non-exercise, 7 mg/kg BW): 0.282 g
Weight of soleus muscle (SOL) (ICR mice [7]; non-exercise, 7 mg/kg BW): 0.021 g
Relative weight of extensor digitorum longus muscle (EDL) (ICR mice [7]; [9]): 0.056 ± 0.003 g/100 g body weight
Relative weight of gastrocnemius muscle (GA) (ICR mice [7]; [9]): 1.122 ± 0.032^+ g/100 g body weight
Relative weight of quadriceps femoris muscle (QF) (ICR mice [7]; [9]): 0.827 g/100 g body weight
Relative weight of soleus muscle (SOL) (ICR mice [7]; [9]): 0.064 g/100 g body weight
Weight of extensor digitorum longus muscle (EDL) (ICR mice [7]; [9]): 0.020 ± 0.001 g
Weight of gastrocnemius muscle (GA) (ICR mice [7]; [9]): 0.406 ± 0.012 g
Weight of quadriceps femoris muscle (QF) (ICR mice [7]; [9]): 0.296 g
Weight of soleus muscle (SOL) (ICR mice [7]; [9]): 0.023 g

From patent publication US20250057864A1, “COMPOSITION FOR IMPROVING EXERCISE PERFORMANCE COMPRISING GYPENOSIDE COMPOUND AS ACTIVE INGREDIENT” (BTC CORPORATION, priority 2022, published 2025)
